Reference: ChEMBL document CHEMBL1132553, “Design, synthesis, and biological evaluation of matrix metalloproteinase inhibitors derived from a modified proline scaffold” (J Med Chem, 1999)

Tests used:
[1] = species: Rattus norvegicus; experiment: In vitro percent permeability into rat ileum; Range is 28-36; type: ADME; details: in vivo
[2] = biological target: Stromelysin-1 (Homo sapiens, UniProt P08254); experiment: In vitro inhibition activity of human recombinant stromelysin (Matrix metalloprotease-3)
Sequence of Stromelysin-1 (P08254 whole entry): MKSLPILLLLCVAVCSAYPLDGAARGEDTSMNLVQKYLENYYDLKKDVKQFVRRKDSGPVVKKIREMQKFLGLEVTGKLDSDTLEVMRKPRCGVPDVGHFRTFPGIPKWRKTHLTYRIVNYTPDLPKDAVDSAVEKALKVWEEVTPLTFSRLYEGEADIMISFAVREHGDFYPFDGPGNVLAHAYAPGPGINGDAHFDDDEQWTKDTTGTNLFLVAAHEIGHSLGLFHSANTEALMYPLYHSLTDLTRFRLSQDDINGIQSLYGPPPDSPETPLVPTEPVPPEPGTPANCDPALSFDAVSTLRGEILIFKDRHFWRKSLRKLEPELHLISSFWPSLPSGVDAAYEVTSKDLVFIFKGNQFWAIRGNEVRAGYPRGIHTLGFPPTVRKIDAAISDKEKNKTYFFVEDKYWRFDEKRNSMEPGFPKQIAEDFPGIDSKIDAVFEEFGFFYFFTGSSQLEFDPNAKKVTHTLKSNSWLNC

[3] = biological target: T1, Matrilysin (Homo sapiens, UniProt P09237); experiment: In vitro inhibition of matrilysin (Matrix metalloprotease-7, MMP-7)
T1 sequence (P09237 whole entry): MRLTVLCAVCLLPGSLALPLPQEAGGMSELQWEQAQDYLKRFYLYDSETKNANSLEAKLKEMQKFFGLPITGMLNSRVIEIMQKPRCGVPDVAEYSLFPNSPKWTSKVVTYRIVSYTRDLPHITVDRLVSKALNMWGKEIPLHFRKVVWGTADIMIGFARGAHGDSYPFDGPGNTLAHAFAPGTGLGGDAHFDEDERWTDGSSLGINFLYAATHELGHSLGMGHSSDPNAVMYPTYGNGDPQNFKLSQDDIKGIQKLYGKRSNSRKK

[4] = biological target: T2, Interstitial collagenase (Homo sapiens, UniProt P03956); experiment: In vitro inhibition of human recombinant collagenase-1 (Matrix metalloprotease-1, MMP-1)
T2 sequence (P03956 whole entry): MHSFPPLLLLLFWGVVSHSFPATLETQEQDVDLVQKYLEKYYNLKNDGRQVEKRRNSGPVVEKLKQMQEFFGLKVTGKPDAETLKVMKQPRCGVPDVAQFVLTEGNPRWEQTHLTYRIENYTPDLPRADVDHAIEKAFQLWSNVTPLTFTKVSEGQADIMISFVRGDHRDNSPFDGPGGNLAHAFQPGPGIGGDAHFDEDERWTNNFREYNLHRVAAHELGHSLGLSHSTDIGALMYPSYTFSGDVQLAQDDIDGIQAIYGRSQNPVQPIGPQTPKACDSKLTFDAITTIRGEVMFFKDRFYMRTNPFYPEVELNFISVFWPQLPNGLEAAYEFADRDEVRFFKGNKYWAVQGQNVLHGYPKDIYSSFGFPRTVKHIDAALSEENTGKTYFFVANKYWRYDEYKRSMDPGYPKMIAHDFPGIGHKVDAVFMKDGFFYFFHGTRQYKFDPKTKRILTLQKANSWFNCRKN

[5] = biological target: Collagenase 3 (Homo sapiens, UniProt P45452); experiment: In vitro inhibition of human recombinant collagenase-3 (Matrix metalloprotease-13)
[6] = biological target: 72 kDa type IV collagenase (Homo sapiens, UniProt P08253)
Sequence of 72 kDa type IV collagenase (P08253 whole entry): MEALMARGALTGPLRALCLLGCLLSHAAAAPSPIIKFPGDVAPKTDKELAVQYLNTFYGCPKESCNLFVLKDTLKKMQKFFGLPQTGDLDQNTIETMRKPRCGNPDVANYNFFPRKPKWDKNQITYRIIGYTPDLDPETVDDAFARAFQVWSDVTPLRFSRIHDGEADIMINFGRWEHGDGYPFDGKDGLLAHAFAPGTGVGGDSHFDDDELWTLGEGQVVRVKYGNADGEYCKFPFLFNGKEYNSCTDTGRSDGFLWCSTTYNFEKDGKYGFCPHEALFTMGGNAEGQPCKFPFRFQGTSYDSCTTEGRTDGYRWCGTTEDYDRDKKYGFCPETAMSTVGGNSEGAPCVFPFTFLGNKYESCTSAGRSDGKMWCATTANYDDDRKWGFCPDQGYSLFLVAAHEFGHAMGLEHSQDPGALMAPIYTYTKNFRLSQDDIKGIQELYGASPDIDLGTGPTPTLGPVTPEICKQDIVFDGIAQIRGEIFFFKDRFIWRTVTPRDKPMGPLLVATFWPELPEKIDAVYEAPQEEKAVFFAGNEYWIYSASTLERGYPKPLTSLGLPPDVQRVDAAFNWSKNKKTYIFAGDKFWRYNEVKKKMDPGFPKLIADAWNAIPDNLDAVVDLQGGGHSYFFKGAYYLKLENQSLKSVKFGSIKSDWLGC
Description: In vitro inhibitory activity against gelatinase-A (matrix metalloprotease-2).

[7] = species: Rattus norvegicus; experiment: In vitro percent permeability into rat ileum; nd indicates not detected; type: ADME; details: in vivo
[8] = species: Rattus norvegicus; experiment: In vitro percent permeability into rat ileum; Range is 2-5; type: ADME; details: in vivo
[9] = species: Rattus norvegicus; experiment: In vitro percent permeability into rat ileum; Range is 15-18; type: ADME; details: in vivo
[10] = species: Rattus norvegicus; experiment: In vitro percent permeability into rat ileum; type: ADME; details: in vivo
[11] = species: Rattus norvegicus; experiment: In vitro percent permeability into rat ileum; Range is 50-68; type: ADME; details: in vivo
[12] = species: Rattus norvegicus; experiment: In vitro percent permeability into rat ileum; Range is 29-35; type: ADME; details: in vivo
[13] = species: Rattus norvegicus; experiment: In vitro percent permeability into rat ileum; nt indicates not detected; type: ADME; details: in vivo
[14] = species: Rattus norvegicus; experiment: In vitro percent permeability into rat ileum; Range is 10-19; type: ADME; details: in vivo
[15] = species: Rattus norvegicus; experiment: In vitro percent permeability into rat ileum; Range is 46-66; type: ADME; details: in vivo
[16] = species: Rattus norvegicus; experiment: In vitro percent permeability into rat ileum; Range is 12-15; type: ADME; details: in vivo
[17] = species: Rattus norvegicus; experiment: In vitro percent permeability into rat ileum; Range is 13-19; type: ADME; details: in vivo
[18] = species: Rattus norvegicus; experiment: In vitro percent permeability into rat ileum; insol indicates not soluble in aqueous buffer; type: ADME
[19] = In vitro percent permeability into rat ileum; Range is 23-42; type: ADME, tissue-based
[20] = species: Rattus norvegicus; experiment: In vitro percent permeability into rat ileum; Range is 14-17; type: ADME; details: in vivo
[21] = species: Rattus norvegicus; experiment: In vitro percent permeability into rat ileum; Range is 10-17; type: ADME; details: in vivo

Row | SMILES | IC50 [2] | IC50 [3] | IC50 [4] | IC50 [5] | IC50 [6] | further results
1 | CCCCOc1ccc(S(=O)(=O)N2C/C(=N\OC)C[C@@H]2C(=O)NO)cc1 | 0.001 µM | 0.089 µM | 0.026 µM | 0.0003 µM | < 0.001 µM | Absorption [1]: 36%
2 | O=C(NO)[C@H]1C/C(=N/Oc2ccccc2)CN1S(=O)(=O)c1ccc(Oc2ccncc2)cc1 | 0.005 µM | 0.785 µM | 0.032 µM | 0.0004 µM |  | Absorption [7]: None detected
3 | CCCCOc1ccc(S(=O)(=O)N2C/C(=N\O)C[C@@H]2C(=O)NO)cc1 | 0.005 µM | 0.307 µM | 0.119 µM | 0.0003 µM | 0.0002 µM | Absorption [8]: 5%
4 | CO/N=C1/C[C@H](C(=O)NO)N(S(=O)(=O)c2ccc(Oc3ccccc3)cc2)C1 | 0.002 µM | 0.06 µM | 0.003 µM | < 0.0004 µM | < 0.0004 µM | Absorption [9]: 18%
5 | CCCCOc1ccc(S(=O)(=O)N2C/C(=N\N3CCOCC3)C[C@@H]2C(=O)NO)cc1 | 0.002 µM | 0.196 µM | 0.293 µM | < 0.001 µM |  | Absorption [10]: 1%
6 | CO/N=C1/C[C@H](C(=O)NO)N(S(=O)(=O)c2ccc(Oc3ccncc3)cc2)C1 | 0.005 µM | 0.922 µM |  | < 0.0002 µM | 0.0003 µM | Absorption [11]: 68%
7 | COc1ccc(S(=O)(=O)N2C/C(=N\O)C[C@@H]2C(=O)NO)cc1 | 0.005 µM |  | 0.017 µM | 0.0002 µM | 0.0002 µM | Absorption [12]: 35%
8 | C=C1C[C@H](C(=O)NO)N(S(=O)(=O)c2ccc(OCCC)cc2)C1 | 0.016 µM | 2.55 µM | 0.155 µM | 0.001 µM | 0.002 µM | 
9 | C=C1C[C@H](C(=O)NO)N(S(=O)(=O)c2ccc(OCCCC)cc2)C1 | 0.015 µM | 1.08 µM | 0.329 µM | 0.0007 µM | 0.0008 µM | 
10 | CCCCOc1ccc(S(=O)(=O)N2C/C(=N\OC(C)(C)C)C[C@@H]2C(=O)NO)cc1 | 0.011 µM | 0.294 µM | 0.074 µM | 0.0004 µM | 0.0005 µM | Absorption [13]: None detected
11 | CONC1C[C@H](C(=O)NO)N(S(=O)(=O)c2ccc(Oc3ccccc3)cc2)C1 (stereo partly drawn) | 0.006 µM | 1.79 µM | 0.086 µM | < 0.0004 µM | < 0.0004 µM | 
12 | CCCCOc1ccc(S(=O)(=O)N2C/C(=N\N3CCNCC3)C[C@@H]2C(=O)NO)cc1 | 0.003 µM | 0.343 µM | 0.184 µM | < 0.001 µM |  | Absorption [14]: 19%
13 | C=C1C[C@H](C(=O)NO)N(S(=O)(=O)c2ccc(OC)cc2)C1 |  | 12.3 µM | 0.09 µM | 0.004 µM |  | Absorption [15]: 66%
14 | CCCOc1ccc(S(=O)(=O)N2C/C(=N\OC)C[C@@H]2C(=O)NO)cc1 | 0.002 µM | 0.381 µM | 0.013 µM | < 0.001 µM | < 0.0004 µM | 
15 | CONC1C[C@H](C(=O)NO)N(S(=O)(=O)c2ccc(OC)cc2)C1 (stereo partly drawn) | 0.019 µM | 3.39 µM | 0.212 µM | 0.003 µM | 0.005 µM | Absorption [16]: 15%
16 | COc1ccc(S(=O)(=O)N2C/C(=N\OC(C)(C)C)C[C@@H]2C(=O)NO)cc1 | 0.009 µM | 0.263 µM | 0.02 µM | < 0.0005 µM | 0.0007 µM | Absorption [17]: 19%
17 | CC(C)(C)O/N=C1/C[C@H](C(=O)NO)N(S(=O)(=O)c2ccc(Oc3ccc(F)cc3)cc2)C1 | < 0.001 µM | 1.03 µM | 0.024 µM | 0.0002 µM | < 0.0004 µM | Absorption [18]: Insoluble
18 | CCOc1ccc(S(=O)(=O)N2C/C(=N\OC)C[C@@H]2C(=O)NO)cc1 | 0.016 µM | 1.06 µM | 0.022 µM | 0.0007 µM | 0.0003 µM | Absorption [19]: 42%
19 | COc1ccc(S(=O)(=O)N2CC(NOC(C)(C)C)C[C@@H]2C(=O)NO)cc1 (stereo partly drawn) | 0.02 µM | 5.23 µM | 0.255 µM | 0.003 µM | 0.004 µM | 
20 | C=C1C[C@H](C(=O)NO)N(S(=O)(=O)c2ccc(Oc3ccccc3)cc2)C1 | 0.014 µM | 0.053 µM | 0.015 µM | < 0.0004 µM | 0.0004 µM | 
21 | COCCOc1ccc(S(=O)(=O)N2C/C(=N\OC)C[C@@H]2C(=O)NO)cc1 | 0.015 µM | 0.612 µM | 0.109 µM | < 0.0004 µM | 0.0005 µM | 
22 | CC(C)(C)O/N=C1/C[C@H](C(=O)NO)N(S(=O)(=O)c2ccc(Oc3ccncc3)cc2)C1 | 0.005 µM | 0.785 µM | 0.026 µM | < 0.0004 µM | < 0.0004 µM | 
23 | COCCOc1ccc(S(=O)(=O)N2CC(NOC)C[C@@H]2C(=O)NO)cc1 (stereo partly drawn) | 0.222 µM | 6.72 µM |  | 0.008 µM | 0.011 µM | 
24 | CCCCOc1ccc(S(=O)(=O)N2C/C(=N\OCC(C)C)C[C@@H]2C(=O)NO)cc1 | 0.012 µM | 0.42 µM | 0.075 µM | < 0.0001 µM | < 0.0004 µM | 
25 | CCCCOc1ccc(S(=O)(=O)N2CC(NOC)C[C@@H]2C(=O)NO)cc1 (stereo partly drawn) | 0.021 µM | 2.08 µM | 0.79 µM | 0.002 µM | 0.001 µM | Absorption [20]: 17%
26 | C=C1C[C@H](C(=O)NO)N(S(=O)(=O)c2ccc(OCCOC)cc2)C1 | 0.069 µM | > 9.99 µM | 1.55 µM | 0.011 µM | 0.009 µM | 
27 | CO/N=C1/C[C@H](C(=O)NO)N(S(=O)(=O)c2ccc(Oc3ccc(F)cc3)cc2)C1 | < 0.001 µM | < 0.024 µM | 0.003 µM | 0.0008 µM | < 0.0004 µM | 
28 | CCCCOc1ccc(S(=O)(=O)N2C/C(=N\OCc3ccccc3)C[C@@H]2C(=O)NO)cc1 | 0.017 µM | 0.49 µM | 0.127 µM | 0.0001 µM | < 0.0004 µM | 
29 | CCCCOc1ccc(S(=O)(=O)N2C/C(=N\OCC)C[C@@H]2C(=O)NO)cc1 | 0.002 µM | 0.039 µM | 0.039 µM | 0.0005 µM | < 0.0004 µM | Absorption [21]: 17%
